From PubChem BioAssay (NCI)
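How tested: cells in 96-well plates exposed to compound for 48 hours at five concentrations. The concentration for 50% growth inhibition is given as GI50. TGI: concentration producing complete growth inhibition.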

How the values were obtained:
Assay in all cases: growth of human tumour cells (NCI), 48 h
CCRF-CEM leukemia = tested on: CCRF-CEM leukemia
K-562 leukemia = tested on: K-562 leukemia
A549 NSCLC = tested on: A549 NSCLC
EKVX NSCLC = tested on: EKVX NSCLC
CAKI-1 renal = tested on: CAKI-1 renal
OVCAR-4 ovarian = tested on: OVCAR-4 ovarian
UACC-257 melanoma = tested on: UACC-257 melanoma
TK-10 renal = tested on: TK-10 renal
SK-MEL-2 melanoma = tested on: SK-MEL-2 melanoma
MDA-MB-435 = tested on: MDA-MB-435

SMILES | TGI (CCRF-CEM leukemia) | TGI (K-562 leukemia) | TGI (A549 NSCLC) | TGI (EKVX NSCLC) | TGI (CAKI-1 renal) | TGI (OVCAR-4 ovarian) | TGI (UACC-257 melanoma) | TGI (TK-10 renal) | TGI (SK-MEL-2 melanoma) | GI50 (SK-MEL-2 melanoma) | GI50 (K-562 leukemia) | GI50 (A549 NSCLC) | GI50 (MDA-MB-435) | TGI (MDA-MB-435) | GI50 (CAKI-1 renal) | GI50 (OVCAR-4 ovarian) | GI50 (UACC-257 melanoma) | GI50 (TK-10 renal) | GI50 (EKVX NSCLC)
CSc1nc2c(nc(N)n2C2OCC(O)C(O)C2O)c(=O)n1C (stereo not drawn) | > 100 µM | > 100 µM | > 100 µM | > 100 µM | > 100 µM | > 100 µM | > 100 µM | > 100 µM |  |  |  |  |  |  |  |  |  |  | 
Cc1ccc(NC(=O)/C(=N\Nc2ccc([N+](=O)[O-])cc2[N+](=O)[O-])C2C(=O)NC(=O)NC2=O)cc1 | > 100 µM | > 100 µM | > 100 µM |  | > 100 µM | > 100 µM | > 100 µM | > 100 µM |  |  |  |  |  |  |  |  |  |  | 
N#CC(C(=O)C(=O)NCCCNC(=O)C(=O)C(C#N)c1ccccc1)c1ccccc1 (stereo not drawn) | > 100 µM | > 100 µM | > 100 µM | > 100 µM | > 100 µM | > 100 µM | > 100 µM | > 100 µM | > 100 µM |  |  |  |  |  |  |  |  |  | 
NC(C(=O)[O-])C(=O)[O-].NC1CCCCC1N.[Pt+4] |  | > 100 µM | > 100 µM |  | 3.99 µM | > 100 µM | > 100 µM | 8.61 µM | > 100 µM | > 100 µM | 5.8 µM | 2.63 µM | 4.04 µM | > 100 µM | 1.07 µM | 11.3 µM | > 100 µM | 3.1 µM | 
Cn1nc(-c2ccccc2)c(C(=O)/C=C/c2ccccc2)c(N2CCOCC2)c1=O | 57.2 µM | 56 µM | > 100 µM |  |  |  |  | 89.4 µM |  |  |  |  |  |  |  |  |  |  | 
CN(C)CCCN1CCc2c([nH]c3ccccc23)C1c1cccnc1 (stereo not drawn) | > 100 µM | > 100 µM | > 100 µM | > 100 µM | > 100 µM | > 100 µM | > 100 µM | > 100 µM | > 100 µM |  |  |  |  |  |  |  |  |  | 
Cc1cc(=O)oc2cc3c(cc12)Oc1ccccc1O3 | > 10 µM | > 10 µM | > 100 µM | > 10 µM |  | > 100 µM | > 100 µM | > 100 µM | > 100 µM |  |  |  |  |  |  |  |  |  | 
COc1nc2nccc-2c2occn12 |  | > 100 µM | > 100 µM | > 100 µM | > 100 µM | > 100 µM | > 100 µM | > 100 µM | > 100 µM |  |  |  |  |  |  |  |  |  | 
CCOC(=O)NN1C(=O)C(=P(c2ccccc2)(c2ccccc2)c2ccccc2)C(C(=O)OCC)=C1C | > 100 µM | > 100 µM | > 100 µM | > 100 µM | > 100 µM | > 100 µM | > 100 µM | > 100 µM | > 100 µM |  |  |  |  |  |  |  |  |  | 
COc1cccc(C2c3cc4c(cc3OC(O)(CO)C2C(=O)O)OCO4)c1 (stereo not drawn) (tested in a mixture with another compound) | > 100 µM | > 100 µM | > 100 µM | > 100 µM |  | > 100 µM | > 100 µM | > 100 µM | > 100 µM |  |  |  |  |  |  |  |  |  | 
COc1ccc(NC(=O)c2cc(OC)c(OC)c(OC)c2)cc1 | > 100 µM | > 100 µM | > 100 µM | > 100 µM | > 100 µM | > 100 µM | > 100 µM | > 100 µM | 65.2 µM |  |  |  |  |  |  |  |  |  | 
CN(CCOc1ccc(C#N)cc1)CCOc1ccc(C#N)cc1 |  | > 100 µM | > 100 µM | > 100 µM | > 100 µM | > 100 µM | > 100 µM | > 100 µM |  |  | 16.7 µM | > 100 µM | 78.8 µM | > 100 µM | 74.6 µM | 67.5 µM | 28.9 µM | 28.7 µM | 63.2 µM
COc1ccc2oc3cccc(NCCN(C)C)c3c(=O)c2c1 | 32.1 µM | 25.3 µM | 28.2 µM | 29.2 µM | 18.2 µM | 27.7 µM | 30.8 µM | 28.2 µM | 30.2 µM |  |  |  |  |  |  |  |  |  | 
CC(C)C1CC(O)O[C@@H]([C@@H](C)[C@H]2CC(=O)[C@@H]3[C@@H]4[C@@H](O)[C@H](O)[C@H]5[C@@H](O)[C@H](O)CC[C@]5(C)[C@H]4CC[C@]23C)C1 (stereo partly drawn) | > 100 µM | > 100 µM | > 100 µM | > 100 µM |  | > 100 µM | > 100 µM | > 100 µM | > 100 µM |  |  |  |  |  |  |  |  |  | 
S=c1[nH]c2ccc(Br)cc2c(=S)n1-c1ccccc1 | > 100 µM | > 100 µM | > 100 µM | > 100 µM | > 100 µM | > 100 µM | 36.9 µM | > 100 µM | 43.7 µM |  |  |  |  |  |  |  |  |  | 
O=C1CC[C@@H](S(=O)(=O)c2ccccc2)[C@@H](/C=C/c2ccccc2)O1 | > 100 µM | > 100 µM | > 100 µM | > 100 µM |  | > 100 µM | > 100 µM | > 100 µM |  |  |  |  |  |  |  |  |  |  | 
CCCCCCCCCc1cc(=O)c2ccc(O)cc2o1 | 55.2 µM | > 100 µM | > 100 µM | > 100 µM | 81.8 µM | > 100 µM | > 100 µM | 91.3 µM | > 100 µM |  |  |  |  |  |  |  |  |  | 
CC(C)CC1=[N+]=C(NC#N)N=C(CCC(=O)Nc2ccccc2[N+](=O)[O-])C1 | > 100 µM | > 100 µM | > 100 µM | > 100 µM | > 100 µM | > 100 µM | > 100 µM | > 100 µM |  |  |  |  |  |  |  |  |  |  | 
CCC12CCCC(=O)N1C(CO)C(c1ccccc1)O2 (stereo not drawn) | > 100 µM | > 100 µM | > 100 µM | > 100 µM | > 100 µM | > 100 µM | > 100 µM | > 100 µM | > 100 µM |  |  |  |  |  |  |  |  |  | 
Cc1cccc(C(C)C)c1NC(=O)C(=O)CC(=O)c1c(C)n([O-])c2ccccc2[n+]1=O | 99.7 µM | > 100 µM | > 100 µM | > 100 µM | > 100 µM | 95 µM | 48 µM | > 100 µM | 98.1 µM |  |  |  |  |  |  |  |  |  | 
COc1cccc(C(=O)C2C(=O)N(C)CCc3ccccc32)c1OC (stereo not drawn) | > 100 µM | > 100 µM | > 100 µM |  | > 100 µM | > 100 µM | > 100 µM | > 100 µM | > 100 µM |  |  |  |  |  |  |  |  |  | 
CC(=O)n1c2ccccc2c2nc3nc(Oc4ccc(C)cc4)c4ccccc4c3cc21 | > 100 µM | > 100 µM | > 100 µM | > 100 µM | > 100 µM | > 100 µM | > 100 µM |  | > 100 µM |  |  |  |  |  |  |  |  |  | 
O=C1C2=C(c3ccccc31)C(c1ccccc1)NC(=S)N2 (stereo not drawn) | > 100 µM | 67.4 µM | > 100 µM | > 100 µM | > 100 µM | > 100 µM | > 100 µM | > 100 µM | > 100 µM |  |  |  |  |  |  |  |  |  | 
CCCCCCCCCCCC[n+]1ccc(CCCCCCCCC)cc1 |  |  |  |  | 2.93 µM |  |  | 2.76 µM |  |  |  |  |  |  | 1.51 µM |  |  | 1.35 µM | 
